Data on one compound can be found in US12577273B2, “Small molecule modulators of gut bacterial bile acid metabolism” (priority 2019, dated 2026).

The structures appear in SMILES notation. Where “and” joins values, the source holds several entries; their conditions need not be identical. Equal entries are not always repeated. Where two headings read alike, the source gives them in different places.

For one experiment, the system named is B. adolescentis. The experiment in a line: Inhibitor screen in bacteria, B. adolescentis culture. The format is cell-based, Bifidobacterium adolescentis L2-32. As to conditions: FIG. 2c, 100 μM inhibitor, 100 μM bile acid pool, 21 h, replicates 1-3.
For experiment [1], the system named is three Gram negative and three Gram positive strains of human gut bacteria. The experiment is described as follows: BSH inhibition in growing cultures of six gut bacterial strains (overall statements). As to conditions: 100 μM inhibitor, 100 μM conjugated bile acid mixture. The experiment is classed as cell-based.
Another experiment deals with B. theta. The experiment is described as follows: Determination of IC50 of compound 7 in B. theta cultures.

In the case of `C[C@H](CCC(=O)CF)[C@H]1CC[C@H]2[C@@H]3[C@H](O)C[C@@H]4C[C@H](O)CC[C@]4(C)[C@H]3CC[C@]12C` [Compound 7], in the experiment with B. adolescentis, the “% deconjugation of TCA” value was 2.88% and 3.09% and 2.93%; the “% deconjugation of TDCA” value is 10.43% and 6.05% and 7.35%; the “% deconjugation of TUDCA” value was 1.54% and 1.26% and 1.21%; the “% deconjugation of TβMCA” value was 0.34% and 0.37% and 0.73%. In addition, in experiment [1], the “deconjugation / BSH inhibition in cultures of the six bacterial strains (in words)” value is recorded as “almost no deconjugation”. Besides, the “deconjugation / BSH inhibition in cultures of the six bacterial strains (in words)” value in experiment [1] (listed as compound 7) was “almost no detectable deconjugation”. Moreover, the IC50 (usually the concentration at which inhibition is half-maximal) in the experiment on B. theta (Bacteroides thetaiotaomicron, 48 h, read-out: IC50 against B. theta (growing culture), 100 μM TUDCA, 48 h anaerobic growth) came to 913 nM. The IC50 in the experiment with B. theta (read-out: IC50 against B. theta (growing culture), 100 μM TUDCA, 48 h anaerobic growth) is 1070 nM.
